# Target: T1, AHR2-2 (tomcod AHR2) (Microgadus tomcod, UniProt B6E9W5)
# T1 sequence (B6E9W5 1-1104): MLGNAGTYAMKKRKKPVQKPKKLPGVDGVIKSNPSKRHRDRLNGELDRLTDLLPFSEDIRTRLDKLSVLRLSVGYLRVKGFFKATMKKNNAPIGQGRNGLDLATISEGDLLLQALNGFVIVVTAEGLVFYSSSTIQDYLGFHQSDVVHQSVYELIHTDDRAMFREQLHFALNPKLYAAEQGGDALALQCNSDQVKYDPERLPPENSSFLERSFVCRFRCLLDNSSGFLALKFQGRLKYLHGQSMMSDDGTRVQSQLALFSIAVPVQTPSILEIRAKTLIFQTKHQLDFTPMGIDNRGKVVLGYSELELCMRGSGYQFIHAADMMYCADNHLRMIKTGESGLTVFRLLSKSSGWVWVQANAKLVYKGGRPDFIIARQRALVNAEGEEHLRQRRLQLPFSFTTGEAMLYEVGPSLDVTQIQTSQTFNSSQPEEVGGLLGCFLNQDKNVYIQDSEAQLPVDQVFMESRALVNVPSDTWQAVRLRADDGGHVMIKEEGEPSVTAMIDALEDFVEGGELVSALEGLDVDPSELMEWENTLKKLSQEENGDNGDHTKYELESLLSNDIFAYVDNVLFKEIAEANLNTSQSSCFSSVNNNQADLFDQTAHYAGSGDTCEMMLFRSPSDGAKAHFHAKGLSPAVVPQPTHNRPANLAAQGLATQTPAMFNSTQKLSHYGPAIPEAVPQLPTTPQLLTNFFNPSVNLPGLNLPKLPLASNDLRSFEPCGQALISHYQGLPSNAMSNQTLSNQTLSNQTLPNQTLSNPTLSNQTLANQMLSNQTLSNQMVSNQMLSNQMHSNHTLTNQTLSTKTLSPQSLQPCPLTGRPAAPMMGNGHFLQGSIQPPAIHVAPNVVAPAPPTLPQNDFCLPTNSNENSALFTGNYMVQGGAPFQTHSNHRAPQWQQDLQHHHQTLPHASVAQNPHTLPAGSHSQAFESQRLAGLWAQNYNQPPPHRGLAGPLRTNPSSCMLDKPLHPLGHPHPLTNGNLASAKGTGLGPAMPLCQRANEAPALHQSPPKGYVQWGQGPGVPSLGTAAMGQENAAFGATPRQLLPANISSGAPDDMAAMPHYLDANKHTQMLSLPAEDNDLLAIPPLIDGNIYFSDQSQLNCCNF
# Test: saturation binding of [3H]TCDD, velocity sedimentation on sucrose gradients
# Settings: labelled compound; 0.1 to 12 nM [3H]TCDD; apparent equilibrium constant
compound,measurement,value
"Clc1cc2c(cc1Cl)Oc1cc(Cl)c(Cl)cc1O2 [TCDD, 2,3,7,8-tetrachlorodibenzo-p-dioxin]",Kd,1.27 nM

# — paper PMC3246799 (Science (New York, N.Y.), 2011)
